ChEMBL document CHEMBL1122010 (J Med Chem, 1982)

Legend:
[1] = The compound was compared with MTX with respect to cytotoxicity toward H.Ep.-2 cells.; assay type: functional
[2] = test system: HEp-2; assay: Effective dose against H.Ep.-2 cells; assay type: functional; conditions: Homo sapiens, read-out: ED50 (the source's name)
[3] = test system: L1210; assay: k value was measured as efflux in L1210 cell membrane transport.; assay type: functional, Mus musculus
[4] = target: T1, Dihydrofolate reductase (Mus musculus, UniProt P00375); assay: Inhibition of Dihydrofolate reductase in mouse L1210 cells; assay type: cell-based
T1 sequence (P00375 whole entry): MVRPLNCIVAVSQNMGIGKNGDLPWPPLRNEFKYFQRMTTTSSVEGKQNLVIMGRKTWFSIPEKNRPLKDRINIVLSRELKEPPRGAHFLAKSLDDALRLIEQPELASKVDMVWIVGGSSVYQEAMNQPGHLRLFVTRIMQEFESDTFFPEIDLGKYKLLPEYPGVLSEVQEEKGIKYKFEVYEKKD

[5] = test system: L1210; assay: Km value was measured as influx in L1210 cell membrane transport.; assay type: functional, cell-based; conditions: Mus musculus
[6] = test system: L1210; assay: Ki value was measured as influx in L1210 cell membrane transport.; assay type: functional, cell-based, Mus musculus
[7] = test system: L1210; assay: Percent increase in life span was measured against L1210 murine leukemia cells at the dose of 200 mg/kg; assay type: functional; conditions: Mus musculus
[8] = test system: L1210; assay: Percent increase in life span was measured against L1210 murine leukemia cells at the dose of 25 mg/kg; assay type: functional; conditions: Mus musculus
[9] = test system: L1210; assay: Percent increase in life span was measured against L1210 murine leukemia cells at the dose of 180 mg/kg; assay type: functional; conditions: Mus musculus
[10] = test system: L1210; assay: Percent increase in life span was measured against L1210 murine leukemia cells at the dose of 2.5 mg/kg; assay type: functional; conditions: Mus musculus
[11] = test system: L1210; assay: Percent increase in life span was measured against L1210 murine leukemia cells at the dose of 50 mg/kg; assay type: functional; conditions: Mus musculus
[12] = test system: L1210; assay: Percent increase in life span was measured against L1210 murine leukemia cells at the dose of 100 mg/kg; assay type: functional; conditions: Mus musculus
[13] = test system: L1210; assay: Percent increase in life span was measured against L1210 murine leukemia cells at the dose of 5 mg/kg; assay type: functional; conditions: Mus musculus
[14] = test system: L1210; assay: Percent increase in life span was measured against L1210 murine leukemia cells at the dose of 1.3 mg/kg; assay type: functional; conditions: Mus musculus

| Compound | MTX ratio [1] | EC50 [2] [nM] | k [3] [min⁻¹] | Ki [4] [nM] | Km [5] [µM] | Ki [6] [nM] | ILS at 200 mg/kg [7] [%] | ILS at 25 mg/kg [8] [%] | ILS at 180 mg/kg [9] [%] | ILS at 2.5 mg/kg [10] [%] | ILS at 50 mg/kg [11] [%] | ILS at 100 mg/kg [12] [%] | ILS at 5 mg/kg [13] [%] | ILS at 1.3 mg/kg [14] [%] |
| --- | --- | --- | --- | --- | --- | --- | --- | --- | --- | --- | --- | --- | --- | --- |
| CCCCCNC(=O)CCC(NC(=O)c1ccc(N(C)Cc2cnc3nc(N)nc(N)c3n2)cc1)C(=O)O (stereo not drawn) | 23 | 55 | 0.26 | 0.0035 | 16.9 | 16800 | 55 | – | – | – | – | – | – | – |
| CN(Cc1cnc2nc(N)nc(N)c2n1)c1ccc(C(=O)NC(CCC(=O)O)C(N)=O)cc1 (stereo not drawn) | 250 | 610 | – | 460 | – | – | – | 34 | – | – | – | – | – | – |
| CN(Cc1cnc2nc(N)nc(N)c2n1)c1ccc(C(=O)NC(CCC(N)=O)C(=O)O)cc1 (stereo not drawn) | 12 | 28 | 0.15 | 0.0027 | 9.4 | 8400 | – | – | 58 | – | – | – | – | – |
| CN(Cc1cnc2nc(N)nc(N)c2n1)c1ccc(C(=O)NC(CCC(=O)N[C@@H](CCC(=O)O)C(=O)O)C(=O)O)cc1 (stereo partly drawn) | 2.2 | 5.2 | 0.22 | 0.0037 | 49.3 | – | – | – | – | 65 | – | – | – | – |
| CN(Cc1cnc2nc(N)nc(N)c2n1)c1ccc(C(=O)NC(CCC(=O)O)C(=O)NCC(=O)O)cc1 (stereo not drawn) | 370 | 590 | – | 208 | – | 66600 | – | – | – | – | 41 | – | – | – |
| CNC(=O)CCC(NC(=O)c1ccc(N(C)Cc2cnc3nc(N)nc(N)c3n2)cc1)C(=O)O (stereo not drawn) | 11 | 27 | 0.21 | 0.0027 | 27.6 | – | – | – | – | – | – | 58 | – | – |
| CN(Cc1cnc2nc(N)nc(N)c2n1)c1ccc(C(=O)NC(CCC(=O)O)C(=O)N[C@@H](CC(=O)O)C(=O)O)cc1 (stereo partly drawn) | 217 | 520 | – | 208 | – | 146000 | – | 47 | – | – | – | – | – | – |
| CN(C)C(=O)CCC(NC(=O)c1ccc(N(C)Cc2cnc3nc(N)nc(N)c3n2)cc1)C(=O)O (stereo not drawn) | 25 | 59 | 0.26 | 0.0039 | 48.4 | – | – | – | – | – | 44 | – | – | – |
| CN(Cc1cnc2nc(N)nc(N)c2n1)c1ccc(C(=O)NC(CCC(=O)O)C(=O)N[C@@H](CCC(=O)O)C(=O)O)cc1 (stereo partly drawn) | 75 | 180 | – | 170 | – | 61000 | – | 67 | – | – | – | – | – | – |
| CN(Cc1cnc2nc(N)nc(N)c2n1)c1ccc(C(=O)NC(CCC(=O)NCC(=O)O)C(=O)O)cc1 (stereo not drawn) | 2.5 | 5.9 | 2.1 | 0.0029 | 3.9 | – | – | – | – | – | – | – | 74 | – |
| CN(Cc1cnc2nc(N)nc(N)c2n1)c1ccc(C(=O)N[C@@H](CCC(=O)O)C(=O)O)cc1 [METHOTREXATE] | – | – | 0.23 | – | 3.3 | 3500 | – | – | – | – | – | – | – | 48 |
| CN(Cc1cnc2nc(N)nc(N)c2n1)c1ccc(C(=O)NC(CCC(=O)N[C@@H](CC(=O)O)C(=O)O)C(=O)O)cc1 (stereo partly drawn) | 140 | 330 | – | 0.0028 | > 300 | – | – | – | – | – | – | – | 65 | – |
| CN(Cc1cnc2nc(N)nc(N)c2n1)c1ccc(C(=O)NC(CCC(=O)NCc2ccccc2)C(=O)O)cc1 (stereo not drawn) | 88 | 210 | 0.19 | 0.0036 | 3.6 | 3800 | – | – | – | – | – | 33 | – | – |
